Here are results for 16 molecules from patent US9469617B2, “Molecules having certain pesticidal utilities, and intermediates, compositions, and processes related thereto” (priority 2014, dated 2016).

Type in all cases: in vivo
In data set [1] the test system is Beet Armyworm (BAW) (Spodoptera exigua). Nature of the data set: Bioassay on Beet Armyworm (BAW), 128-well diet tray assay. The following applies: 168 h, Table ABC, 50 μg/cm^2 on artificial diet, second instar larvae, five to seven days, 25° C., read-out: BAW % Control (or Mortality) rating. Here is the method: (§1) Certain molecules disclosed in this document were tested against BAW and CL using procedures described in the following examples. In the reporting of the results, the “BAW & CL Rating Table” was used (See Table Section).
Bioassays on BAW were conducted using a 128-well diet tray assay. one to five second instar BAW larvae were placed in each well (3 mL) of the diet tray that had been previously filled with 1 mL of artificial diet to which 50 μg/cm^2 of the test compound (dissolved in 50 μL of 90:10 acetone-water mixture) had been applied (to each of eight wells) and then allowed to dry. Trays were covered with a clear self-adhesive cover, and held at 25° C., 14:10 light-dark for five to seven days. Percent mortality was recorded for the larvae in each well; activity in the eight wells was then averaged. The results are indicated in the tables entitled “Table ABC: Assay Results” and “Table ABCD: Assay Results” (See Table Section).

The subject of data set [2] is Cabbage Looper (CL) (Trichoplusia ni). Nature of the data set: Bioassay on Cabbage Looper (CL), 128-well diet tray assay. The following applies: 168 h, Table ABC, 50 μg/cm^2 on artificial diet, second instar larvae, five to seven days, 25° C., read-out: CL % Control (or Mortality) rating. Here is the method: as §1
Bioassays on CL were conducted using a 128-well diet tray assay. One to five second instar CL larvae were placed in each well (3 mL) of the diet tray that had been previously filled with 1 mL of artificial diet to which 50 μg/cm^2 of the test compound (dissolved in 50 μL of 90:10 acetone-water mixture) had been applied (to each of eight wells) and then allowed to dry. Trays were covered with a clear self-adhesive cover, and held at 25° C., 14:10 light-dark for five to seven days. Percent mortality was recorded for the larvae in each well; activity in the eight wells was then averaged. The results are indicated in the table entitled “Table ABC: Assay Results” and “Table ABCD: Assay Results” (See Table Section).

Data set [3] concerns Yellow Fever Mosquito (YFM) (Aedes aegypti). Nature of the data set: Bioassay on Yellow Fever Mosquito (YFM) larvae, 96-well plate. The following applies: Table ABC; about 1 day-old larvae, master plate 4000 ppm in DMSO diluted, scored on mortality after 3 days. On the procedure: Certain molecules disclosed in this document were tested against YFM using procedures described in the following paragraph. In the reporting of the results, the “GPA & YFM Rating Table” was used (See Table Section).
Master plates containing 400 μg of a molecule dissolved in 100 μL of dimethyl sulfoxide (DMSO) (equivalent to a 4000 ppm solution) are used. A master plate of assembled molecules contains 15 μL per well. To this plate, 135 μL of a 90:10 water:acetone mixture is added to each well. A robot (Biomek® NXP Laboratory Automation Workstation) is programmed to dispense 15 μL aspirations from the master plate into an empty 96-well shallow plate (“daughter” plate). There are 6 reps (“daughter” plates) created per master. The created daughter plates are then immediately infested with YFM larvae.
The day before plates are to be treated, mosquito eggs are placed in Millipore water containing liver powder to begin hatching (4 g. into 400 mL). After the daughter plates are created using the robot, they are infested with 220 μL of the liver powder/larval mosquito mixture (about 1 day-old larvae). After plates are infested with mosquito larvae, a non-evaporative lid is used to cover the plate to reduce drying. Plates are held at room temperature for 3 days prior to grading. After 3 days, each well is observed and scored based on mortality.

`CCc1cccc(C)c1N1C(=O)CS/C1=N\C(=O)NC1Cc2ccc(-c3ncn(-c4ccc(OC(F)(F)F)cc4)n3)cc2C1` (stereo not drawn) [F10, (Z)-1-(3-(2-Ethyl-6-methylphenyl)-4-oxothiazolidin-2-ylidene)-3-(5-(1-(4-(trifluoromethoxy)phenyl)-1H-1,2,4-triazol-3-yl)-2,3-dihydro-1H-inden-2-yl)urea]: the mortality at 50 µg/cm2 in data set [1] and in data set [2] was 50 to 100% throughout. In addition, in data set [3], the “YFM % Control (or Mortality) rating” value is reported as “A (80-100)”.

As for `O=C(NC(=S)Nc1ccccc1C1CC1)NC1Cc2ccc(-c3ncn(-c4ccc(OC(F)(F)F)cc4)n3)cc2C1` (stereo not drawn) [F11, 1-[(2-Cyclopropylphenyl)carbamothioyl]-3-[5-[1-[4-(trifluoromethoxy)phenyl]-1,2,4-triazol-3-yl]indan-2-yl]urea], the mortality at 50 µg/cm2 in data set [1] and in data set [2] was 50 to 100% throughout. In data set [3], the “YFM % Control (or Mortality) rating” value is “A (80-100)”.

For the molecule `CC(C)c1ccccc1N1C(=O)CS/C1=N\C(=O)NC1Cc2ccc(-c3ncn(-c4ccc(OC(F)(F)F)cc4)n3)cc2C1` (stereo not drawn) [F16, (Z)-1-(3-(2-Isopropylphenyl)-4-oxothiazolidin-2-ylidene)-3-(5-(1-(4-(trifluoromethoxy)phenyl)-1H-1,2,4-triazol-3-yl)-2,3-dihydro-1H-inden-2-yl)urea], the mortality at 50 µg/cm2 in data set [1] and in data set [2] was 50 to 100% in each case. Further, the “YFM % Control (or Mortality) rating” value in data set [3] is “A (80-100)”.

Consider `Cc1ccc(C(C)C)c(N2C(=O)CS/C2=N\C(=O)NC2CCc3cc(-c4ncn(-c5ccc(OC(F)(F)F)cc5)n4)ccc3C2)c1` (stereo not drawn) [F17, (Z)-1-(3-(2-isopropyl-5-methylphenyl)-4-oxothiazolidin-2-ylidene)-3-(6-(1-(4-(trifluoromethoxy)phenyl)-1H-1,2,4-triazol-3-yl)-1,2,3,4-tetrahydronaphthalen-2-yl)urea], for which the mortality at 50 µg/cm2 in data set [1] and in data set [2] was 50 to 100% in each case. In addition, the “YFM % Control (or Mortality) rating” value in data set [3] is recorded as “A (80-100)”.

As for `Cc1cs/c(=N\C(=O)NC2Cc3ccc(-c4ncn(-c5ccc(OC(F)(F)F)cc5)n4)cc3C2)n1-c1ccccc1C(C)C` (stereo not drawn) [FA1, (Z)-1-(3-(2-isopropylphenyl)-4-methylthiazol-2(3H)-ylidene)-3-(5-(1-(4-(trifluoromethoxy)phenyl)-1H-1,2,4-triazol-3-yl)-2,3-dihydro-1H-inden-2-yl)urea], the mortality at 50 µg/cm2 in data set [1] and in data set [2] was 50 to 100% each time. In data set [3], the “YFM % Control (or Mortality) rating” value is given as “A (80-100)”.

Regarding `CC(C)c1ccccc1N1/C(=N/C(=O)NC2Cc3ccc(-c4ncn(-c5ccc(OC(F)(F)F)cc5)n4)cc3C2)SCC1C` (stereo not drawn) [FA3, (Z)-1-(3-(2-isopropylphenyl)-4-methylthiazolidin-2-ylidene)-3-(5-(1-(4-(trifluoromethoxy)phenyl)-1H-1,2,4-triazol-3-yl)-2,3-dihydro-1H-inden-2-yl)urea], the mortality at 50 µg/cm2 in data set [1] is 50 to 100%; in data set [2] it was 0%. For the same molecule, in data set [3], the “YFM % Control (or Mortality) rating” value is on record as “B (More than 0-Less than 80)”.

As for `CC1CS/C(=N\C(=O)NC2Cc3ccc(-c4ncn(-c5ccc(OC(F)(F)F)cc5)n4)cc3C2)N(c2ccccc2C(C)C)C1` (stereo not drawn) [FA5, (Z)-1-(3-(2-Isopropylphenyl)-5-methyl-1,3-thiazinan-2-ylidene)-3-(5-(1-(4-(trifluoromethoxy)phenyl)-1H-1,2,4-triazol-3-yl)-2,3-dihydro-1H-inden-2-yl)urea], the mortality at 50 µg/cm2 in data set [1] and in data set [2] was 50 to 100% each time. Moreover, the “YFM % Control (or Mortality) rating” value in data set [3] is “A (80-100)”.

As to `CC(C)c1ccccc1N1/C(=N/C(=O)NC2Cc3ccc(-c4ncn(-c5ccc(OC(F)(F)F)cc5)n4)cc3C2)SCCC1C` (stereo not drawn) [FA6, (Z)-1-(3-(2-Isopropylphenyl)-4-methyl-1,3-thiazinan-2-ylidene)-3-(5-(1-(4-(trifluoromethoxy)phenyl)-1H-1,2,4-triazol-3-yl)-2,3-dihydro-1H-inden-2-yl)urea], the mortality at 50 µg/cm2 in data set [1] and in data set [2] was 50 to 100% throughout. Further, the “YFM % Control (or Mortality) rating” value in data set [3] was “A (80-100)”.

Regarding `COc1ccc(NC(=S)NC(=O)NC2Cc3ccc(-c4ncn(-c5ccc(OC(F)(F)F)cc5)n4)cc3C2)c(C)c1` (stereo not drawn) [P1], the mortality at 50 µg/cm2 in data set [1] and in data set [2] was 50 to 100% in each case. Besides, the “YFM % Control (or Mortality) rating” value in data set [3] is “A (80-100)”.

As to `CC(C)c1cc(F)ccc1NC(=S)NC(=O)NC1Cc2ccc(-c3ncn(-c4ccc(OC(F)(F)F)cc4)n3)cc2C1` (stereo not drawn) [P2, 1-[(4-Fluoro-2-isopropyl-phenyl)carbamothioyl]-3-[5-[1-[4-(trifluoromethoxy)phenyl]-1,2,4-triazol-3-yl]indan-2-yl]urea], the mortality at 50 µg/cm2 in data set [1] and in data set [2] was 50 to 100% each time. In addition, the “YFM % Control (or Mortality) rating” value in data set [3] is “A (80-100)”.

In the case of `CC(C)c1ccc(Cl)cc1NC(=S)NC(=O)NC1Cc2ccc(-c3ncn(-c4ccc(OC(F)(F)F)cc4)n3)cc2C1` (stereo not drawn) [P3, 1-[(5-Chloro-2-isopropyl-phenyl)carbamothioyl]-3-[5-[1-[4-(trifluoromethoxy)phenyl]-1,2,4-triazol-3-yl]indan-2-yl]urea], the mortality at 50 µg/cm2 in data set [1] and in data set [2] was 50 to 100% throughout. In data set [3], the “YFM % Control (or Mortality) rating” value is “A (80-100)”.

Take `COc1ccc(C(C)C)c(NC(=S)NC(=O)NC2Cc3ccc(-c4ncn(-c5ccc(OC(F)(F)F)cc5)n4)cc3C2)c1` (stereo not drawn) [P4, 1-[(2-Isopropyl-5-methoxy-phenyl)carbamothioyl]-3-[5-[1-[4-(trifluoromethoxy)phenyl]-1,2,4-triazol-3-yl]indan-2-yl]urea]: the mortality at 50 µg/cm2 in data set [1] and in data set [2] was 50 to 100% each time. The “YFM % Control (or Mortality) rating” value in data set [3] is “A (80-100)”.

In the case of `Cc1ccc(NC(=S)NC(=O)NC2Cc3ccc(-c4ncn(-c5ccc(OC(F)(F)F)cc5)n4)cc3C2)c(C(C)C)c1` (stereo not drawn) [P5, 1-[(2-Isopropyl-4-methyl-phenyl)carbamothioyl]-3-[5-[1-[4-(trifluoromethoxy)phenyl]-1,2,4-triazol-3-yl]indan-2-yl]urea], the mortality at 50 µg/cm2 in data set [1] and in data set [2] was 50 to 100% in each case. Also, in data set [3], the “YFM % Control (or Mortality) rating” value was “A (80-100)”.

Regarding `COc1ccc(N2C(=O)CS/C2=N\C(=O)NC2Cc3ccc(-c4ncn(-c5ccc(OC(F)(F)F)cc5)n4)cc3C2)c(C)c1` (stereo not drawn) [P6, (Z)-1-(3-(4-methoxy-2-methylphenyl)-4-oxothiazolidin-2-ylidene)-3-(5-(1-(4-(trifluoromethoxy)phenyl)-1H-1,2,4-triazol-3-yl)-2,3-dihydro-1H-inden-2-yl)urea], the mortality at 50 µg/cm2 in data set [1] and in data set [2] was 50 to 100% each time. Moreover, the “YFM % Control (or Mortality) rating” value in data set [3] was “A (80-100)”.

Take `Cc1ccc(N2C(=O)CS/C2=N\C(=O)NC2Cc3ccc(-c4ncn(-c5ccc(OC(F)(F)F)cc5)n4)cc3C2)c(C(C)C)c1` (stereo not drawn) [P7, (Z)-1-(3-(2-Isopropyl-4-methylphenyl)-4-oxothiazolidin-2-ylidene)-3-(5-(1-(4-(trifluoromethoxy)phenyl)-1H-1,2,4-triazol-3-yl)-2,3-dihydro-1H-inden-2-yl)urea]: the mortality at 50 µg/cm2 in data set [1] and in data set [2] was 50 to 100% each time. Further, the “YFM % Control (or Mortality) rating” value in data set [3] is “A (80-100)”.

Regarding `CC(C)c1ccc(Cl)cc1N1C(=O)CS/C1=N\C(=O)NC1Cc2ccc(-c3ncn(-c4ccc(OC(F)(F)F)cc4)n3)cc2C1` (stereo not drawn) [P8, (Z)-1-(3-(5-Chloro-2-isopropylphenyl)-4-oxothiazolidin-2-ylidene)-3-(5-(1-(4-(trifluoromethoxy)phenyl)-1H-1,2,4-triazol-3-yl)-2,3-dihydro-1H-inden-2-yl)urea], the mortality at 50 µg/cm2 in data set [1] and in data set [2] was 50 to 100% each time. The “YFM % Control (or Mortality) rating” value in data set [3] is recorded as “A (80-100)”.

One may read the mortality as the percentage killed.
